Experimental data published in patent publication US6870029B2, “Method of diagnosing and treating gliomas” (priority 1995, dated 2005).
Where “and” joins values, the source holds several entries; their conditions need not be identical. Equal values may be shown once. Read-outs that look alike come from different tables or passages of the source.

Assays:
astrocytoma cells = test: Proliferation assay, 3H-thymidine incorporation; type: cell-based, human; conditions: 24 hour incubation, vs untreated control
Experimental: Proliferation was studied quantitatively by determining incorporation of ^3H-thymidine. In brief, cells were incubated for 24 hours in the continuous presence or absence of Ara-C (cytosine arabinoside, 10 μM), DIDS (200 μM), DNDS (200 μM), zinc (200 μM) or chlorotoxin (600 nM). Cells were incubated with 1 μCi/ml radiolabelled thymidine ([methyl-^3H]thymidine) for the final 4 hours (at 37° C.). Culture dishes were rinsed three times with ice-cold PBS and solublized with 0.3N NaOH for 30 minutes at 37° C. One aliquot ([…]) was used for cell protein determination using the bicinchroninic assay (BCA; Pierce Rockford, Ill.). The remaining cell suspension was mixed with Ultima Gold, and radioactivity was determined with a scintillation counter. The results were expressed as cpm/μg protein.
Given that these Cl^− currents were consistently present in all astrocytoma cells tested from both primary cultures of surgical specimens and from established human astrocytoma cell lines, whether Cl^− currents influence astrocytoma proliferation was examined. Although the effects of Cl^− channel blockade on cell proliferation have been reported in Schwann cells (40) and in B lymphocytes (7), the importance of Cl^− ion channels in glia cells has never been shown. Cells were cultured in the continuous presence of the anti-mitotic agent Ara-C (10 μM), DIDS (200 μM), DNDS (200 μM), Zinc (200 μM), or chlorotoxin (600 nM) and compared the rate of proliferation to untreated (control) sister cultures. Cells were treated at 2 days in culture (DIC) and proliferation was assayed 24 hours later, at 3 DIC, a period of high proliferation of untreated control cultures. As expected, incubation in the anti-mitotic agent Ara-C led to a 70% decrease in proliferation (SD=1.3309, N=17).

[1] = test system: Glioma Chloride Channel (GCC); type: cell-based, human; conditions: for reversibility of current block: after bath application, short exposure times for DIDS and DNDS; for IC50: electrophysiologically determined, read-out: IC50 for inhibition of GCC currents
Description: Current and voltage recordings were obtained using standard whole-cell patch-clamp techniques with an Axopatch-1D amplifier (Axon Instruments). Patch-pipettes were made from thin-walled borosilicate glass (WPI, TW150F-40) o.d. 1.5 mm, i.d. 1.2 mm and were filled with a solution containing (in mM): KCl 145, MgCl2 1, CaCl2 0.2, EGTA 10, Hepes 10, pH adjusted to 7.4 using Tris, unless otherwise noted. Pipettes were not fire-polished and typically had resistances between 2-5MΩ. Cells were continuously superperfused with saline solution, allowing for rapid (<30 seconds) exchange of bath volume. The standard bath solution contained, in mM: NaCl 122.6, KCl 5, MgCl2 1.2, CaCl2 1.0, Na2HPO4 2.0, NaH2PO4 0.4, NaHCO3 25.0, Na2SO4 1.2, Glucose 10.5 (bubbled with 5% CO2/95% O2). Drugs used to block ionic conductances were prepared freshly as stock solutions for each experiment and added to bath solution. Osmolality was measured with a vapor pressure osmometer (Wescor, Logan, Utah) and adjusted to 308-312 mOsms.
For whole-cell recordings, cell capacitance compensation and series resistance compensation were used to minimize voltage errors. The amplifier reading of capacitance was used as the value for the whole-cell membrane capacitance. Series resistances, monitored at regular intervals throughout each experiment, were usually 5-10 MΩ, and series resistance compensation was typically set to ˜80%. Entrance potential, read from the amplifier at the time of entering the whole-cell configuration, was used to determine each cell's resting potential. Voltage-clamp recordings were used to search for voltage-activated currents and stimulation profiles were altered to fully activate chloride channels (pulses from −105 to 195 mV). Where indicated, P/4 leak subtraction was obtained using hyperpolarizing voltage steps to obtain leak currents. Current reversal potential (voltage at which I=0) was determined from IV plots in which tail current amplitudes were plotted as a function of voltage. Effects of channel blockers were assessed by comparing current traces, entrance potential, and reversal potential prior to and following drug application. Snap photographs were taken of each recorded cell using a CCD camera and a video printer for cataloging of cell size, location, and morphology. Recordings were made at room temperature, typically 20-25° C.
Chlorotoxin is a protein having 36 amino acids that is derived from scorpion venom toxin that was originally described as a blocker of small conductance Cl^− channels in epithelial cells (8).
For the following studies, the electrophysiology format was as follows: standard current and voltage recordings were obtained using the whole-cell patch-clamp technique with an Axopatch-1D amplifier (Axon Instruments). Cells were continuously superperfused with bicarbonate-buffered saline at room temperature containing, in mM: NaCl 122.6, KCl 5, MgCl2 1.2, CaCl2 1.0, Na2HPO4 2.0, NaH2PO4 0.4, NaHCO3 25.0, Na2SO4 1.2, Glucose 10.5 (bubbled with 5% CO2). Electrodes (WPI, TW150F-40) o.d. 1.5 mm, i.d. 1.2 mm were filled with (in mM): KCl 145, MgCl2 1, CaCl2 0.2, EGTA 10, Hepes 10, pH adjusted to 7.4 using Tris, unless otherwise noted. Entrance potential, read from the amplifier at the time of entering the whole-cell configuration, was used to determine each cell's resting potential. Voltage-clamp recordings were used to search for voltage-activated currents and stimulation profiles were altered to fully activate chloride channels (pulses from −120 to 120 mV).

normal human glial cells = test: 125[I]-chlorotoxin binding to non-tumor cells; conditions: normal human glial cells and mixed brain cell cultures
Experimental: Therefore, binding affinity was determined using (^125[I]-Ctx) radiolabeled with ^125[I]-sodium iodide by the chloramine-T method.

glioma cells = test: Immunotoxin (saporin) killing targeted to the Ctx binding site; type: cell-based, human; conditions: pre-treatment of cultures with 6 μM
Experimental: FIG. 19 show the glioma cells were exposed to 600 nM Ctx-GST followed by a mouse aGST and a goat anti-mouse antibody conjugated to saporin.
Using this approach, glioma cells were first treated with Ctx-GST, followed by a mouse anti-GST monoclonal antibody and lastly a goat anti-mouse antibody conjugated to saporin.

[2] = applied to the cytosolic face, 200 μM

Molecule: Nc1ccn([C@@H]2O[C@H](CO)[C@@H](O)[C@@H]2O)c(=O)n1 [Ara-C, cytosine arabinoside]
- decrease in proliferation (3H-thymidine incorporation) (astrocytoma cells; 10 μM): 70%

Molecule: O=S(=O)(O)c1cc(N=C=S)ccc1C=Cc1ccc(N=C=S)cc1S(=O)(=O)O [DIDS, 4,4′-Diisothiocyanostilbene-2,2′-disulfonic acid]
- decrease in proliferation (3H-thymidine incorporation) (astrocytoma cells; 200 μM): 16.4%
- reversibility of current block [1]: partly reversible
- block of currents [1, 2]: 50%±10.9

Molecule: O=[N+]([O-])c1ccc(C=Cc2ccc([N+](=O)[O-])cc2S(=O)(=O)O)c(S(=O)(=O)O)c1 [DNDS, 4,4′-Dinitrostilbene-2,2′-disulfonic acid]
- decrease in proliferation (3H-thymidine incorporation) (astrocytoma cells; 200 μM): 38.2%
- reversibility of current block [1]: partly reversible
- block of currents [1, 2]: 62%

Molecule: [Cd] [cadmium]
- block of currents ([1]; 25 mM as printed): 42%
- decrease in peak currents ([1]; bath application of 25 μM): 42%±18.5

Molecule: [Zn] [zinc]
- decrease in proliferation (3H-thymidine incorporation) (astrocytoma cells; 200 μM): 72.6%

Molecule: chlorotoxin
- specific binding (normal human glial cells): no specific Ctx binding
- prevention of immunotoxin cell death (glioma cells): largely prevented
- increase in proliferation (3H-thymidine incorporation) (astrocytoma cells; 600 nM): 37.8% and 37%
- reversibility of current block [1]: partially reversible
- block of Cl− currents ([1]; applied to the cytoplasmic face, 2.5 μM): 60.44%
- decrease of outward currents ([1]; bath application of 590 nM, STTG1 cells, voltage steps −105 to +195 mV): 81%
- IC50 ([1]; listed as Ctx): ~950 nM
- IC50 [1]: 950 nM

Molecule: glutathione-S-transferase [GST]
- reduction in Cl− currents [1]: ineffective
